Assays:
[1] = system: neuraminidase (NA) of A(H3N2) viruses; assay type: biochemical, influenza A(H3N2) virus
[2] = system: neuraminidase (NA) of A(H1N1)pdm09 viruses; assay type: biochemical, influenza A(H1N1)pdm09 virus
[3] = system: neuraminidase (NA) of B/Victoria-lineage viruses; assay type: biochemical, influenza B/Victoria-lineage virus
[4] = system: neuraminidase (NA) of B/Yamagata-lineage viruses; assay type: biochemical, influenza B/Yamagata-lineage virus

## [H]/N=C(\N)N[C@H]1C=C(C(=O)O)O[C@@H]([C@H](OC)[C@H](O)CO)[C@@H]1NC(C)=O [Laninamivir, laninamivir]
[1]
  inhibition phenotype in NAI assay (NI/RI/HRI): borderline NI

## CC(=O)N[C@H]1[C@H]([C@H](O)[C@H](O)CO)OC(C(=O)O)=C[C@@H]1N=C(N)N [Zanamivir, zanamivir]
[2]
  inhibition phenotype in NAI assay (NI/RI/HRI): borderline RI
[3]
  IC50 fold-change: 14–17 fold
[1]
  IC50 fold-change: 32 fold
  IC50 fold-change compared to reference median IC50 values: 32 fold

## CCOC(=O)C1=C[C@@H](OC(CC)CC)[C@H](NC(C)=O)[C@@H](N)C1 [Oseltamivir, oseltamivir]
[4]
  inhibition phenotype in NAI assay (NI/RI/HRI): borderline RI
[1]
  IC50 fold-change: 87 fold
  IC50 fold-change compared to reference median IC50 values: 87 fold

Source: article PMC5667636 (Antiviral Research, 2017)
